Laboratory results: ChEMBL document CHEMBL5653631, “A Potent and Selective ULK1 Inhibitor Suppresses Autophagy and Sensitizes Cancer Cells to Nutrient Stress” (iScience, 2018)

Assays:
[1] = molecular target: Mitogen-activated protein kinase kinase kinase 10 (Homo sapiens) (UniProt Q02779); assay: Inhibition of human recombinant MLK2 at 40 nM related to control ULK1
[2] = molecular target: T1, Tyrosine-protein kinase JAK3 (Homo sapiens) (UniProt P52333); assay: Inhibition of human recombinant JAK3 at 15 nM in presence of ATP by radiometric assay relative to control
T1 sequence (whole entry): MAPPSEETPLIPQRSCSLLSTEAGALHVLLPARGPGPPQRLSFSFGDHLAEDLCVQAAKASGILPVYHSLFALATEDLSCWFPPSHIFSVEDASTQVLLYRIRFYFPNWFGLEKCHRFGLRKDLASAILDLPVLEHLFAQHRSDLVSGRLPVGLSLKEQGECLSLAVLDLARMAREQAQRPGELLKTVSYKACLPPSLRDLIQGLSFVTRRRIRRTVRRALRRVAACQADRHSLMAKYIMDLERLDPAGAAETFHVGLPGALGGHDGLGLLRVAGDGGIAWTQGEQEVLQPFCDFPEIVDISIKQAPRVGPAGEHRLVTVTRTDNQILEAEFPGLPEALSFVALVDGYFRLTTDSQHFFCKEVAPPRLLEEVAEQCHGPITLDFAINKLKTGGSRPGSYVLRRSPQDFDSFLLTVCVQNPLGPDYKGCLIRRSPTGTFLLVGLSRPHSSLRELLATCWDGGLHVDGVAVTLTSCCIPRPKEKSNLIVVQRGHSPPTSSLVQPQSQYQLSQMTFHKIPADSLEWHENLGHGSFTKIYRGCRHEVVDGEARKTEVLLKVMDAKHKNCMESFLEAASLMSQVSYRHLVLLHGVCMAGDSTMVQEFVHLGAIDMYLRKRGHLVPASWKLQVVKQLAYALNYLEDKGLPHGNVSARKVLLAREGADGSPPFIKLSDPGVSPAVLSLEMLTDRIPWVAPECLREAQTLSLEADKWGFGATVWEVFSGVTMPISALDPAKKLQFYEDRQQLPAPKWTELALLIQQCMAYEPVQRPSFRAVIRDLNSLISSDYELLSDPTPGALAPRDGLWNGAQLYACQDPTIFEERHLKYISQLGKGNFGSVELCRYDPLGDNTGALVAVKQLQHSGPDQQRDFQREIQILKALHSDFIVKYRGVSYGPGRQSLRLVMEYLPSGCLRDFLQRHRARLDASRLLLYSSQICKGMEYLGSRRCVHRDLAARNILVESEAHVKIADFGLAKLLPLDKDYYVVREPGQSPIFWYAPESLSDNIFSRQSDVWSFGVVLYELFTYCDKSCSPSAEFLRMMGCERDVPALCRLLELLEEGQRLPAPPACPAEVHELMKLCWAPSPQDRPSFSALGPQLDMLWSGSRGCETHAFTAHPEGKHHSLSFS

[3] = molecular target: Vascular endothelial growth factor receptor 3 (Homo sapiens) (UniProt P35916); assay: Inhibition of human recombinant FLT4 at 15 nM related to control ULK1
Vascular endothelial growth factor receptor 3 (Homo sapiens), sequence (P35916 whole entry): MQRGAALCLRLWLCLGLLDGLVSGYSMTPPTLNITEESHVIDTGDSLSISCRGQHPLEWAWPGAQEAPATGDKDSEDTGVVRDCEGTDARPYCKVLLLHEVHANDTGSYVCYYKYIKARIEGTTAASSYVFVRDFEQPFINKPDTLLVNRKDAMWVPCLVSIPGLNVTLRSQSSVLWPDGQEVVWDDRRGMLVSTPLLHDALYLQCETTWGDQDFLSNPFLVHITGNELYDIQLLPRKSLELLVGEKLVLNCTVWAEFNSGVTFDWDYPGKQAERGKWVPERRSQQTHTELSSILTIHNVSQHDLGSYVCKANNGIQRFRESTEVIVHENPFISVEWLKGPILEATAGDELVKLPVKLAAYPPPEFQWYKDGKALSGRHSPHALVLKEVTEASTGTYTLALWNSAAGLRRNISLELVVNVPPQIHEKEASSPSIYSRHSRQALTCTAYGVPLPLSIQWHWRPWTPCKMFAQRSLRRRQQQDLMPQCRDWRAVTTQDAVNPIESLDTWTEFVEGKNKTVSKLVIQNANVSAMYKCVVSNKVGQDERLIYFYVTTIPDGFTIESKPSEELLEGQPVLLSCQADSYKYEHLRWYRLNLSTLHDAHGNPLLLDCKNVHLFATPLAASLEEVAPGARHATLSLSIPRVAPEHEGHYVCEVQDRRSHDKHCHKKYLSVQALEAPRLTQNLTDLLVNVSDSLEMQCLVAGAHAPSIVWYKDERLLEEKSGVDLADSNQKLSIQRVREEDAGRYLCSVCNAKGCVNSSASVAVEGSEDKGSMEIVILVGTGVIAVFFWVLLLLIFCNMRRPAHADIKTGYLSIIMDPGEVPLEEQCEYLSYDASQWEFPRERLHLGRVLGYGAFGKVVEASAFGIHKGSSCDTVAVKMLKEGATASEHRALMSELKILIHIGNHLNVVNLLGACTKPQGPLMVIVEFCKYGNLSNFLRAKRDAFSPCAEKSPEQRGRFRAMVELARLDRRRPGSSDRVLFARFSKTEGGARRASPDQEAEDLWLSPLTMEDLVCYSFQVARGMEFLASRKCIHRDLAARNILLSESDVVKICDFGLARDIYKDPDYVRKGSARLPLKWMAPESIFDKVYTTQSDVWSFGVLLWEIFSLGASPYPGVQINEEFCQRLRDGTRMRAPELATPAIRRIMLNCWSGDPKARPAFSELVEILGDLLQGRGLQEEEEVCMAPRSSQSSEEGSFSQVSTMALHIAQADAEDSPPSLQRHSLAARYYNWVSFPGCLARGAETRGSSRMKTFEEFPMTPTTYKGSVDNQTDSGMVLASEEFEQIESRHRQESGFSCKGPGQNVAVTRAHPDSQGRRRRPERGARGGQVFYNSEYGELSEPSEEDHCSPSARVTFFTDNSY

[4] = molecular target: Cyclin-dependent kinase-like 3 (Homo sapiens) (UniProt Q8IVW4); assay: Inhibition of human recombinant CDKL3 at 500 nM in presence of ATP by radiometric assay relative to control
Cyclin-dependent kinase-like 3 (Homo sapiens), sequence (Q8IVW4 whole entry, looked up): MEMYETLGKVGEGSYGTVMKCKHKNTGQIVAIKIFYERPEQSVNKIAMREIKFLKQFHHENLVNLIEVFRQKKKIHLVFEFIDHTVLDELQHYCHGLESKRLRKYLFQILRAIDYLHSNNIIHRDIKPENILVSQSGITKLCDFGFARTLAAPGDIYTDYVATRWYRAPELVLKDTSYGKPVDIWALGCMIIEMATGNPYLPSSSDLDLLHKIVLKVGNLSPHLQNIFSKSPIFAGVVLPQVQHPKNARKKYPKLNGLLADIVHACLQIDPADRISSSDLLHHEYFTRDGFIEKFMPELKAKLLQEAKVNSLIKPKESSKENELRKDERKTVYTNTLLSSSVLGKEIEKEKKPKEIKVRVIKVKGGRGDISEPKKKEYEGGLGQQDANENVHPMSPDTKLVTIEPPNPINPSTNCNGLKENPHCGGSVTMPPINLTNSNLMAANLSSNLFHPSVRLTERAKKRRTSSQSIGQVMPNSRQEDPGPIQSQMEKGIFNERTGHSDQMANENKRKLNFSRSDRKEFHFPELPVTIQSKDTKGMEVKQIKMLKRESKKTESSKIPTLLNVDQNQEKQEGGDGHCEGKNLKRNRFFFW

[5] = molecular target: Epidermal growth factor receptor (Homo sapiens) (UniProt P00533); assay: Inhibition of human recombinant EGFR at 500 nM in presence of ATP by radiometric assay relative to control
Epidermal growth factor receptor (Homo sapiens), sequence (P00533 whole entry): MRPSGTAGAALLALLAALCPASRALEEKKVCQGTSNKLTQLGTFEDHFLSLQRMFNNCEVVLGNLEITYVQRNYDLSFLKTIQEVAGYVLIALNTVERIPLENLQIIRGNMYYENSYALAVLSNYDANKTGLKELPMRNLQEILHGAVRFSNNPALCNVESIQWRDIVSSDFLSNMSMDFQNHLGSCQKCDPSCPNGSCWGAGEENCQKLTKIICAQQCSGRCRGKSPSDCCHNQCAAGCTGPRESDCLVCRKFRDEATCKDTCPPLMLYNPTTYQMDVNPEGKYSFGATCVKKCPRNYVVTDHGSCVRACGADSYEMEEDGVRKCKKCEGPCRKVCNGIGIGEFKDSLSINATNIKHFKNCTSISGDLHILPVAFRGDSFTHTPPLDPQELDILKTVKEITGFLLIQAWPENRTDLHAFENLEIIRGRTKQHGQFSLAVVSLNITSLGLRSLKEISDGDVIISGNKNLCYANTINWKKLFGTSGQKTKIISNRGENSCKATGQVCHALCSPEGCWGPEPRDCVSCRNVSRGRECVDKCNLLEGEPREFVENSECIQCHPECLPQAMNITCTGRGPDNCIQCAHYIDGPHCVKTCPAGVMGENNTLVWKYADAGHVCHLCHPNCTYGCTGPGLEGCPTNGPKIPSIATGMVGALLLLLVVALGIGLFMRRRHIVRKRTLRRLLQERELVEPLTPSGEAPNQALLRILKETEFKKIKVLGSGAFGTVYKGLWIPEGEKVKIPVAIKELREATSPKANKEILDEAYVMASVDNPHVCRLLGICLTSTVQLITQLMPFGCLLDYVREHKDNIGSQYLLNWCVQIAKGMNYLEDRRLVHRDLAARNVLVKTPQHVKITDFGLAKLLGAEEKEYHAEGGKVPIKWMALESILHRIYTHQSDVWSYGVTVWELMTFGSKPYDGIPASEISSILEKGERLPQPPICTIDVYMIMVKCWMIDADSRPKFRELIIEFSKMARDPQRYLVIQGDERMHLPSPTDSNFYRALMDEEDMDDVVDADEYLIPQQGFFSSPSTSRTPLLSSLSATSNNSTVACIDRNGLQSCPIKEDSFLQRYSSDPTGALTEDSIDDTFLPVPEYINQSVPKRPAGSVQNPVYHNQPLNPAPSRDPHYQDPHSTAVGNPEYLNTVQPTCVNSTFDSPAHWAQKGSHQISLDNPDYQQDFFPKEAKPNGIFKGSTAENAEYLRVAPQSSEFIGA

[6] = molecular target: Cyclin-dependent kinase-like 1 (Homo sapiens) (UniProt Q00532); assay: Inhibition of human recombinant CDKL1 at 500 nM related to control ULK1
Cyclin-dependent kinase-like 1 (Homo sapiens), sequence (Q00532 whole entry): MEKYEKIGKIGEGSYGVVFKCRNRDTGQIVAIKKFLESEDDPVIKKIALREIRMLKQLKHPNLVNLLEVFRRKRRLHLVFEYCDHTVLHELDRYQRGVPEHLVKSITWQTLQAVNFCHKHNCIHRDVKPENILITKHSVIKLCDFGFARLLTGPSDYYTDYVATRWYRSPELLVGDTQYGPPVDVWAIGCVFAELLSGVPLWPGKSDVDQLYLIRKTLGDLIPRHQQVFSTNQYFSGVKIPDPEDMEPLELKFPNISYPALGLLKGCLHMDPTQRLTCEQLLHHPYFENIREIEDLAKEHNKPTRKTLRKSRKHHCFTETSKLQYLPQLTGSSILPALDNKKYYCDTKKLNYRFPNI

[7] = molecular target: T2, Serine/threonine-protein kinase Nek9 (Homo sapiens) (UniProt Q8TD19); assay: Inhibition of human recombinant NEK9 at 500 nM related to control ULK1
T2 sequence (whole entry): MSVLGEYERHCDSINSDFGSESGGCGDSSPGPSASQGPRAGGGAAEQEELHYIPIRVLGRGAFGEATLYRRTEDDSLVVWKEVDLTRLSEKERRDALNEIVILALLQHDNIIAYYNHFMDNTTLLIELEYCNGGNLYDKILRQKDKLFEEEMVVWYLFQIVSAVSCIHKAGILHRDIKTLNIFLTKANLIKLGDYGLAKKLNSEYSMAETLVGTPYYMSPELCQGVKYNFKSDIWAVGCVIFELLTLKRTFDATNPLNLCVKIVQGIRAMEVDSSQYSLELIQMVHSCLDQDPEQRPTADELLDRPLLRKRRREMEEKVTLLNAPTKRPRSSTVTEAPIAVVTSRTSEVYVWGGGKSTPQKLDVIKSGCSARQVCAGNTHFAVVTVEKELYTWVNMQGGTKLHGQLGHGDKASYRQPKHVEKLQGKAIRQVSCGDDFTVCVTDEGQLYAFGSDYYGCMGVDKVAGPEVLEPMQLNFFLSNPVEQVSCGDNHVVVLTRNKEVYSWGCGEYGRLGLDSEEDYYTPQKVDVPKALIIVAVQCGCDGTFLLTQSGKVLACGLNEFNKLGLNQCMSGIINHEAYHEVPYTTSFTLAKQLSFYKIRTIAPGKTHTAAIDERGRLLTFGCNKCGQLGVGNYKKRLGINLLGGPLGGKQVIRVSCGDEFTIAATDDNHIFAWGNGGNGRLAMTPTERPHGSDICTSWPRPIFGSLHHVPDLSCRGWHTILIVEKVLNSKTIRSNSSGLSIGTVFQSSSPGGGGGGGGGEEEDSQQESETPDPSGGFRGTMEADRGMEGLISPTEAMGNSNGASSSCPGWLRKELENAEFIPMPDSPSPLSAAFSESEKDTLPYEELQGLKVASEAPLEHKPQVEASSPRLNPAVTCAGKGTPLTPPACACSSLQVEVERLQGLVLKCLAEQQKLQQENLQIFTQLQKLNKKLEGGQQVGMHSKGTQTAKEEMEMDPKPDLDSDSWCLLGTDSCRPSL

Mitogen-activated protein kinase kinase kinase 10 (Homo sapiens), sequence (Q02779 whole entry, looked up): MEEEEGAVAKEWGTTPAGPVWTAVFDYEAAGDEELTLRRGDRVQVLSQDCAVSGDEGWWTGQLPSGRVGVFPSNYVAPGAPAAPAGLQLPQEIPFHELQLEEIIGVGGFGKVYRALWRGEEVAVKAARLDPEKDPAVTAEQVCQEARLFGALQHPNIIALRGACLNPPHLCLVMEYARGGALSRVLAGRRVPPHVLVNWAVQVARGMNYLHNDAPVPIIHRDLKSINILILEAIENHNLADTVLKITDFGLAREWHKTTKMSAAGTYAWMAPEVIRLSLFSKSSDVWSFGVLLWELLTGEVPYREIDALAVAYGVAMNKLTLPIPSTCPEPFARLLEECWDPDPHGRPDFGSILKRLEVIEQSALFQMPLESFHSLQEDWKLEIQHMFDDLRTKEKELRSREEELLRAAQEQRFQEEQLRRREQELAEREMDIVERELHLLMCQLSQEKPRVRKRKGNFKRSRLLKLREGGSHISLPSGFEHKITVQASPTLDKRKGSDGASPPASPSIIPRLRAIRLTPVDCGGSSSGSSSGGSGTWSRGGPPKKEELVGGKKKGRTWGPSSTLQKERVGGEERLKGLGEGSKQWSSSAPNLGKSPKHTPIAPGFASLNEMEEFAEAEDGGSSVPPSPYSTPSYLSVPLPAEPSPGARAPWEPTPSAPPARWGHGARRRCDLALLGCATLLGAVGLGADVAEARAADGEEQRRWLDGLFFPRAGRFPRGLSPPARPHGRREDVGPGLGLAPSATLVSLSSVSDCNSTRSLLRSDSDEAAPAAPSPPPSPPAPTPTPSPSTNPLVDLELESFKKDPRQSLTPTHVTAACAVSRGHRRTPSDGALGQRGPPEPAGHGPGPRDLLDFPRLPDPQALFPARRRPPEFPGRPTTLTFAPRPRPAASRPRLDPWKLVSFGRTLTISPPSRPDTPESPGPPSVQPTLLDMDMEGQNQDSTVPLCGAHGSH

O=C(N[C@@H](C1CC1)C(F)(F)F)c1cc(-c2cnn3cc(-c4ccc(F)cc4)cnc23)cs1 gave a fold change (FC) [1] of 0.
In the case of CC(C)[C@H](NC(=O)c1cc(-c2cnn3cc(-c4ccc(OCCN5CCCCC5)cc4)cnc23)cs1)C(F)(F)F, the inhibition [2] is reported as 0% and the fold change (FC) [3] is reported as 0.4.
CNC(=O)c1ccccc1Oc1nc(Nc2cc(OC)c(OC)c(OC)c2)ncc1Br gave an inhibition [4] of 0%, an inhibition [5] of 3% and a fold change (FC) [6] of 0. The fold change (FC) [7] was 0.
